Tests used:
Type in all cases: functional
ACHN [1] = assay: Cytotoxicity against human ACHN cells assessed as cell growth at 100 uM after 48 hrs by sulforhodamine B assay relative to control; conditions: read-out: Activity
ACHN [2] = assay: Cytotoxicity against human ACHN cells assessed as cell growth at 10 uM after 48 hrs by sulforhodamine B assay relative to control; conditions: read-out: Activity
HOP-62 = assay: Cytotoxicity against human HOP62 cells assessed as cell growth at 0.01 uM after 48 hrs by sulforhodamine B assay relative to control; conditions: HOP-62, 48 h, read-out: Activity
UACC-62 = assay: Cytotoxicity against human UACC62 cells assessed as cell growth at 0.01 uM after 48 hrs by sulforhodamine B assay relative to control; conditions: UACC-62, 48 h, read-out: Activity
T47D [3] = assay: Cytotoxicity against human T47D cells assessed as cell growth at 1 uM after 48 hrs by sulforhodamine B assay relative to control; conditions: read-out: Activity
NCI/ADR-RES = assay: Cytotoxicity against human NCI/ADR-RES cells assessed as cell growth at 0.01 uM after 48 hrs by sulforhodamine B assay relative to control; conditions: read-out: Activity
Malme-3M [4] = assay: Cytotoxicity against human MALME-3M cells assessed as cell growth at 1 uM after 48 hrs by sulforhodamine B assay relative to control; conditions: read-out: Activity
ACHN [5] = assay: Cytotoxicity against human ACHN cells assessed as growth inhibition after 48 hrs by sulforhodamine B assay
T47D [6] = assay: Cytotoxicity against human T47D cells assessed as cell growth at 10 uM after 48 hrs by sulforhodamine B assay relative to control; conditions: read-out: Activity
PC-3 = assay: Cytotoxicity against human PC3 cells assessed as cell growth at 10 uM after 48 hrs by sulforhodamine B assay relative to control; conditions: PC-3, 48 h, read-out: Activity
K562 = assay: Cytotoxicity against human K562 cells assessed as growth inhibition after 48 hrs by sulforhodamine B assay; conditions: K562, 48 h
HCT-116 = assay: Cytotoxicity against human HCT116 cells assessed as cell growth at 0.01 uM after 48 hrs by sulforhodamine B assay relative to control; conditions: HCT-116, 48 h, read-out: Activity
COLO 205 = assay: Cytotoxicity against human COLO205 cells assessed as growth inhibition after 48 hrs by sulforhodamine B assay; conditions: COLO 205, 48 h
NCI-H226 [7] = assay: Cytotoxicity against human NCI-H226 cells assessed as growth inhibition after 48 hrs by sulforhodamine B assay; conditions: NCI-H226, 48 h
NCI-H226 [8] = assay: Cytotoxicity against human NCI-H226 cells assessed as cell growth at 1 uM after 48 hrs by sulforhodamine B assay relative to control; conditions: NCI-H226, 48 h, read-out: Activity
U-251 = assay: Cytotoxicity against human U251 cells assessed as growth inhibition after 48 hrs by sulforhodamine B assay; conditions: U-251, 48 h
BT-549 [9] = assay: Cytotoxicity against human BT549 cells assessed as cell growth at 1 uM after 48 hrs by sulforhodamine B assay relative to control; conditions: BT-549, 48 h, read-out: Activity
RPMI-8226 = assay: Cytotoxicity against human RPMI8226 cells assessed as cell growth at 0.1 uM after 48 hrs by sulforhodamine B assay relative to control; conditions: RPMI-8226, 48 h, read-out: Activity
HL-60(TB) = assay: Cytotoxicity against human HL-60(TB) cells assessed as cell growth at 1 uM after 48 hrs by sulforhodamine B assay relative to control; conditions: HL-60, 48 h, read-out: Activity
M14 = assay: Cytotoxicity against human M14 cells assessed as cell growth at 0.01 uM after 48 hrs by sulforhodamine B assay relative to control; conditions: M14, 48 h, read-out: Activity
DU-145 = assay: Cytotoxicity against human DU145 cells assessed as cell growth at 0.1 uM after 48 hrs by sulforhodamine B assay relative to control; conditions: DU-145, 48 h, read-out: Activity
MCF7 = assay: Cytotoxicity against human MCF7 cells assessed as cell growth at 0.01 uM after 48 hrs by sulforhodamine B assay relative to control; conditions: MCF7, 48 h, read-out: Activity
BT-549 [10] = assay: Cytotoxicity against human BT549 cells assessed as cell growth at 10 uM after 48 hrs by sulforhodamine B assay relative to control; conditions: BT-549, 48 h, read-out: Activity
SNB-19 = assay: Cytotoxicity against human SNB19 cells assessed as cell growth at 0.01 uM after 48 hrs by sulforhodamine B assay relative to control; conditions: SNB-19, 48 h, read-out: Activity
Malme-3M [11] = assay: Cytotoxicity against human MALME-3M cells assessed as growth inhibition after 48 hrs by sulforhodamine B assay
BT-549 [12] = assay: Cytotoxicity against human BT549 cells assessed as cell growth at 0.1 uM after 48 hrs by sulforhodamine B assay relative to control; conditions: BT-549, 48 h, read-out: Activity
SF-268 = assay: Cytotoxicity against human SF268 cells assessed as cell growth at 10 uM after 48 hrs by sulforhodamine B assay relative to control; conditions: SF-268, 48 h, read-out: Activity
OVCAR-5 [13] = assay: Cytotoxicity against human OVCAR5 cells assessed as growth inhibition after 48 hrs by sulforhodamine B assay; conditions: OVCAR-5, 48 h
OVCAR-5 [14] = assay: Cytotoxicity against human OVCAR5 cells assessed as cell growth at 1 uM after 48 hrs by sulforhodamine B assay relative to control; conditions: OVCAR-5, 48 h, read-out: Activity
SK-MEL-2 = assay: Cytotoxicity against human SK-MEL-2 cells assessed as growth inhibition after 48 hrs by sulforhodamine B assay; conditions: SK-MEL-2, 48 h
NCI-H460 = assay: Cytotoxicity against human NCI-H460 cells assessed as cell growth at 0.01 uM after 48 hrs by sulforhodamine B assay relative to control; conditions: NCI-H460, 48 h, read-out: Activity
TK-10 = assay: Cytotoxicity against human TK10 cells assessed as growth inhibition after 48 hrs by sulforhodamine B assay; conditions: TK-10, 48 h
SK-MEL-28 = assay: Cytotoxicity against human SK-MEL-28 cells assessed as cell growth at 0.1 uM after 48 hrs by sulforhodamine B assay relative to control; conditions: SK-MEL-28, 48 h, read-out: Activity
786-0 = assay: Cytotoxicity against human 786-0 cells assessed as cell growth at 10 uM after 48 hrs by sulforhodamine B assay relative to control; conditions: 786-0, 48 h, read-out: Activity
MDA-MB-468 = assay: Cytotoxicity against human MDA-MB-468 cells assessed as cell growth at 1 uM after 48 hrs by sulforhodamine B assay relative to control; conditions: MDA-MB-468, 48 h, read-out: Activity
HT-29 = assay: Cytotoxicity against human HT-29 cells assessed as cell growth at 0.01 uM after 48 hrs by sulforhodamine B assay relative to control; conditions: HT-29, 48 h, read-out: Activity

## COc1ccc(C(=O)/C=C/c2cc(-c3cc(OC)c(OC)c(OC)c3)n[nH]2)cc1
ACHN [1]
  growth at 100 µM: -93%
ACHN [2]
  growth at 10 µM: -83%
HOP-62
  growth at 0.01 µM: 99%
UACC-62
  growth at 0.01 µM: 100%
T47D [3]
  growth at 1 µM: 78%
NCI/ADR-RES
  growth at 0.01 µM: 102%
Malme-3M [4]
  growth at 1 µM: 93%
ACHN [5]
  LC50: 6.71 µM
  TGI: 3.63 µM
T47D [6]
  growth at 10 µM: 1%
PC-3
  growth at 10 µM: -68%
K562
  LC50 (concentration killing 50% of cells): > 100 µM
HCT-116
  growth at 0.01 µM: 100%
COLO 205
  LC50: 6.06 µM
  TGI: 3.24 µM
NCI-H226 [7]
  TGI: 4.07 µM
NCI-H226 [8]
  growth at 1 µM: 92%
U-251
  TGI: 2.83 µM
BT-549 [9]
  growth at 1 µM: 93%
RPMI-8226
  growth at 0.1 µM: 90%
HL-60(TB)
  growth at 1 µM: 99%
M14
  growth at 0.01 µM: 100%
DU-145
  growth at 0.1 µM: 101%
MCF7
  growth at 0.01 µM: 101%
BT-549 [10]
  growth at 10 µM: -65%
SNB-19
  growth at 0.01 µM: 97%
Malme-3M [11]
  TGI: 3.85 µM
BT-549 [12]
  growth at 0.1 µM: 97%
SF-268
  growth at 10 µM: -35%
OVCAR-5 [13]
  LC50: 7.6 µM
  TGI: 3.78 µM
OVCAR-5 [14]
  growth at 1 µM: 95%
SK-MEL-2
  LC50 (concentration killing 50% of cells): 99.2 µM
  TGI: 19.6 µM
NCI-H460
  growth at 0.01 µM: 103%
TK-10
  LC50: > 100 µM
  TGI: 5.77 µM
SK-MEL-28
  growth at 0.1 µM: 104%
786-0
  growth at 10 µM: -59%
MDA-MB-468
  growth at 1 µM: 68%
HT-29
  growth at 0.01 µM: 102%

## COc1cc(-c2cc(/C=C/C(=O)c3ccc4c(c3)OCO4)[nH]n2)cc(OC)c1OC
ACHN [1]
  growth at 100 µM: -69%
ACHN [2]
  growth at 10 µM: -73%
HOP-62
  growth at 0.01 µM: 101%
UACC-62
  growth at 0.01 µM: 98%
T47D [3]
  growth at 1 µM: 79%
NCI/ADR-RES
  growth at 0.01 µM: 96%
Malme-3M [4]
  growth at 1 µM: 94%
ACHN [5]
  LC50: 7.32 µM
  TGI: 3.71 µM
T47D [6]
  growth at 10 µM: 6%
PC-3
  growth at 10 µM: 6%
K562
  LC50 (concentration killing 50% of cells): > 100 µM
  TGI: 9.81 µM
HCT-116
  growth at 0.01 µM: 104%
COLO 205
  LC50: 7.92 µM
  TGI: 3.85 µM
NCI-H226 [7]
  LC50 (concentration killing 50% of cells): > 100 µM
  TGI: > 100 µM
NCI-H226 [8]
  growth at 1 µM: 89%
U-251
  LC50: 59.5 µM
  TGI: 5.45 µM
BT-549 [9]
  growth at 1 µM: 92%
RPMI-8226
  growth at 0.1 µM: 83%
HL-60(TB)
  growth at 1 µM: 86%
M14
  growth at 0.01 µM: 97%
DU-145
  growth at 0.1 µM: 102%
MCF7
  growth at 0.01 µM: 89%
BT-549 [10]
  growth at 10 µM: -20%
SNB-19
  growth at 0.01 µM: 94%
Malme-3M [11]
  LC50: 84.5 µM
  TGI: 20.8 µM
BT-549 [12]
  growth at 0.1 µM: 99%
SF-268
  growth at 10 µM: 5%
OVCAR-5 [13]
  LC50: > 100 µM
  TGI: 93.5 µM
OVCAR-5 [14]
  growth at 1 µM: 88%
SK-MEL-2
  LC50 (concentration killing 50% of cells): 81.3 µM
  TGI: 28.9 µM
NCI-H460
  growth at 0.01 µM: 104%
TK-10
  LC50: > 100 µM
  TGI: 5.73 µM
SK-MEL-28
  growth at 0.1 µM: 106%
786-0
  growth at 10 µM: -30%
MDA-MB-468
  growth at 1 µM: 74%
HT-29
  growth at 0.01 µM: 99%

Source: ChEMBL document CHEMBL4138123, “Design, synthesis and biological evaluation of novel pyrazolochalcones as potential modulators of PI3K/Akt/mTOR pathway and inducers of apoptosis in breast cancer cells” (Eur J Med Chem, 2017)
